The results in this text go back to ChEMBL document CHEMBL1139600, “Synthesis, in vivo and in vitro biological activity of novel azaline B analogs” (Bioorg Med Chem Lett, 2005).

*1 amine or outer side, *2 acyl side, *3 side chain or, on linkers, in order; H or OH if unused. Where a SMILES comes first, the peptide text is derived from it. [ ]: non-standard residue; d: D form. Phe(4-NH(5-NH2triazol-3-yl)) = Nc1nc(Nc2ccc(C[C@H](N)C(=O)O)cc2)n[nH]1; X1 = Nc1nc(Nc2ccc(C[C@@H](N[*:1])C(=O)[*:2])cc2)n[nH]1; dPhe(4-Cl) = N[C@H](Cc1ccc(Cl)cc1)C(=O)O; d2Nal = N[C@H](Cc1ccc2ccccc2c1)C(=O)O; Lys(iPr) = CC(C)NCCCC[C@H](N)C(=O)O; d3Pal = N[C@H](Cc1cccnc1)C(=O)O

Assay [1] addresses T1, Gonadotropin-releasing hormone receptor (Homo sapiens, UniProt P30968).
T1 sequence (P30968 whole entry): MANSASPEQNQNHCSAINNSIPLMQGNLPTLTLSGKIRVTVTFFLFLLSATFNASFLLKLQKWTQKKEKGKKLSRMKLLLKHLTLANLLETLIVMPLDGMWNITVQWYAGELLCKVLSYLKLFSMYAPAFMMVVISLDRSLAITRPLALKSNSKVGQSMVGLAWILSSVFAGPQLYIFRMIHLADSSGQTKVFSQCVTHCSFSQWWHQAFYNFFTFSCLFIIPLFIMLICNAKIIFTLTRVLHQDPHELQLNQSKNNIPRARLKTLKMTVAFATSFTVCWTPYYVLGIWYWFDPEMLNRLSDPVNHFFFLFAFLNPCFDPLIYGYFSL
Put plainly: (§1) In vitro inhibition of human gonadotropin-releasing hormone expressed in HEK293 cells. In kind it is cell-based.

Assay [2] concerns the target T1, Gonadotropin-releasing hormone receptor. Described as §1. In kind it is cell-based. The source holds these as a separate data set.

One may read the IC50 as the concentration that gives 50% inhibition. A high value points to weaker potency in that assay. `CC(=O)N[C@H](Cc1ccc2ccccc2c1)C(=O)N[C@H](Cc1ccc(Cl)cc1)C(=O)N[C@H](Cc1cccnc1)C(=O)N[C@@H](CO)C(=O)N[C@@H](Cc1ccc(NC(=O)NC(=O)[C@H](N)CCC(N)=O)cc1)C(=O)N[C@H](Cc1ccc(NC(N)=O)cc1)C(=O)N[C@@H](CC(C)C)C(=O)N[C@@H](CCCCNC(C)C)C(=O)N1CCC[C@H]1C(=O)N[C@H](C)C(=O)O`: the values for the IC50 in assay [1] and in assay [2] were 6.86 nM and 6.31 nM, respectively.

As for `CC(=O)N[C@H](Cc1ccc2ccccc2c1)C(=O)N[C@H](Cc1ccc(Cl)cc1)C(=O)N[C@H](Cc1cccnc1)C(=O)N[C@@H](CO)C(=O)N[C@@H](Cc1ccc(Nc2n[nH]c(N)n2)cc1)C(=O)N[C@H](Cc1ccc(Nc2n[nH]c(N)n2)cc1)C(=O)N[C@@H](CC(C)C)C(=O)N[C@@H](CCCCNC(C)C)C(=O)N1CCC[C@H]1C(=O)N[C@H](C)C(N)=O` (Ac-[d2Nal][dPhe(4-Cl)][d3Pal]S[Phe(4-NH(5-NH2triazol-3-yl))][X1]L[Lys(iPr)]P[dA]-NH2), in assay [2], it took 1.26 nM to reach half-maximal inhibition (IC50).

Consider `CC(=O)N[C@H](Cc1ccc2ccccc2c1)C(=O)N[C@H](Cc1ccc(Cl)cc1)C(=O)N[C@H](Cc1cccnc1)C(=O)N[C@@H](CO)C(=O)N[C@@H](Cc1ccc(NC(=O)[C@@H]2CCC(=O)N2)cc1)C(=O)N[C@H](Cc1ccc(NC(N)=O)cc1)C(=O)N[C@@H](CC(C)C)C(=O)N[C@@H](CCCCNC(C)C)C(=O)N1CCC[C@H]1C(=O)N[C@H](C)C(=O)O`, for which the figures for the IC50 in assay [1] and in assay [2] were 1.85 nM and 2 nM, respectively.

As to `CC(=O)N[C@H](Cc1ccc2ccccc2c1)C(=O)N[C@H](Cc1ccc(Cl)cc1)C(=O)N[C@H](Cc1cccnc1)C(=O)N[C@@H](CO)C(=O)N[C@@H](Cc1ccc(NC(=O)C(N)CCN)cc1)C(=O)N[C@H](Cc1ccc(NC(N)=O)cc1)C(=O)N[C@@H](CC(C)C)C(=O)N[C@@H](CCCCNC(C)C)C(=O)N1CCC[C@H]1C(=O)N[C@H](C)C(=O)O` (some centres undefined), the results for the IC50 in assay [1] and in assay [2] were 3.53 nM and 3.16 nM, respectively.

In the case of `CC(=O)N[C@H](Cc1ccc2ccccc2c1)C(=O)N[C@H](Cc1ccc(Cl)cc1)C(=O)N[C@H](Cc1cccnc1)C(=O)N[C@@H](CO)C(=O)N[C@@H](Cc1ccc(NC(=O)C2CCNC(=O)N2)cc1)C(=O)N[C@H](Cc1ccc(NC(N)=O)cc1)C(=O)N[C@@H](CC(C)C)C(=O)N[C@@H](CCCCNC(C)C)C(=O)N1CCC[C@H]1C(=O)N[C@H](C)C(N)=O` (some centres undefined), the IC50 in assay [1] is 1.78 nM; in assay [2], 2 nM.

For `CC(=O)N[C@H](Cc1ccc2ccccc2c1)C(=O)N[C@H](Cc1ccc(Cl)cc1)C(=O)N[C@H](Cc1cccnc1)C(=O)N[C@@H](CO)C(=O)N[C@@H](Cc1ccc(NC(=O)NC(=O)[C@@H](N)CC(N)=O)cc1)C(=O)N[C@H](Cc1ccc(NC(N)=O)cc1)C(=O)N[C@@H](CC(C)C)C(=O)N[C@@H](CCCCNC(C)C)C(=O)N1CCC[C@H]1C(=O)N[C@H](C)C(=O)O`, the IC50 in assay [1] is 2.37 nM; in assay [2], 2.51 nM.

With `CC(=O)N[C@H](Cc1ccc2ccccc2c1)C(=O)N[C@H](Cc1ccc(Cl)cc1)C(=O)N[C@H](Cc1cccnc1)C(=O)N[C@@H](CO)C(=O)N[C@@H](Cc1ccc(NCC(=O)n2cc(C)c(=O)[nH]c2=O)cc1)C(=O)N[C@H](Cc1ccc(NC(N)=O)cc1)C(=O)N[C@@H](CC(C)C)C(=O)N[C@@H](CCCCNC(C)C)C(=O)N1CCC[C@H]1C(=O)N[C@H](C)C(N)=O`, the half-inhibitory concentration (IC50) in assay [1] is 2.46 nM; in assay [2], 2.51 nM.

Consider `CC(C)C[C@H](NC(=O)[C@@H](Cc1ccc(NC(N)=O)cc1)NC(=O)[C@H](Cc1ccc(NC(=O)C(N)CN)cc1)NC(=O)[C@H](CO)NC(=O)[C@@H](Cc1cccnc1)NC(=O)[C@@H](Cc1ccc(Cl)cc1)NC(=O)[C@H](N)Cc1ccc2ccccc2c1)C(=O)N[C@@H](CCCCNC(C)C)C(=O)N1CCC[C@H]1C(=O)N[C@H](C)C(=O)O` (some centres undefined), for which the IC50 in assay [1] was 2.82 nM; in assay [2], 3.16 nM.

Consider `CC(=O)N[C@H](Cc1ccc2ccccc2c1)C(=O)N[C@H](Cc1ccc(Cl)cc1)C(=O)N[C@H](Cc1cccnc1)C(=O)N[C@@H](CO)C(=O)N[C@@H](Cc1ccc(NC(=O)NC(=O)[C@H](N)CC(N)=O)cc1)C(=O)N[C@H](Cc1ccc(NC(N)=O)cc1)C(=O)N[C@@H](CC(C)C)C(=O)N[C@@H](CCCCNC(C)C)C(=O)N1CCC[C@H]1C(=O)N[C@H](C)C(=O)O`, for which the results for the IC50 in assay [1] and in assay [2] were 2.22 nM and 2 nM, respectively.

As to `CC(=O)N[C@H](Cc1ccc2ccccc2c1)C(=O)N[C@H](Cc1ccc(Cl)cc1)C(=O)N[C@H](Cc1cccnc1)C(=O)N[C@@H](CO)C(=O)N[C@@H](Cc1ccc(NC(=O)C(N)CN)cc1)C(=O)N[C@H](Cc1ccc(NC(N)=O)cc1)C(=O)N[C@@H](CC(C)C)C(=O)N[C@@H](CCCCNC(C)C)C(=O)N1CCC[C@H]1C(=O)N[C@H](C)C(=O)O` (some centres undefined), the IC50 was 6.37 nM in assay [1] and 6.31 nM in assay [2].
